# How the values were obtained:
# [1] = test system: ribosome, 16S rRNA mutation A1518U; test: In vitro mRNA translation; format: biochemical; details: E. coli AVS69009 16S rRNA A1518U
# Method: (§1) The ribosomal localization of GE81112, as determined by a recent crystallographic study, places this antibiotic in a position that is not too far away from the binding site of kasugamycin [20, 21]. For this reason, some ribosomal mutants bearing 16S rRNA base substitutions that cause kasugamycin resistance were tested for their sensitivity to GE81112 inhibition.
# (§2) The 027IF2Cp(A) mRNA and the bacterial S30 cell extracts were prepared as described. The incubation conditions for mRNA translation and for the determination of synthesized product have also been previously described.
# [2] = test system: ribosome, 16S rRNA mutation A794G; test: In vitro mRNA translation; format: biochemical; details: E. coli AVS69009 16S rRNA A794G
# Method: as §1, §2
# [3] = test system: ribosome, 16S rRNA mutation A794U; test: In vitro mRNA translation; format: biochemical; details: E. coli AVS69009 16S rRNA A794U
# Method: as §1, §2
# [4] = test system: ribosome, 16S rRNA mutation G926A; test: In vitro mRNA translation; format: biochemical; details: E. coli AVS69009 16S rRNA G926A
# Method: as §1, §2
# [5] = test system: ribosome, 16S rRNA mutation G926C; test: In vitro mRNA translation; format: biochemical; details: E. coli AVS69009 16S rRNA G926C
# Method: as §1, §2
# [6] = test system: ribosome, 16S rRNA mutation G926U; test: In vitro mRNA translation; format: biochemical; details: E. coli AVS69009 16S rRNA G926U
# Method: as §1, §2
# ribosome, 16S rRNA wt = test: In vitro mRNA translation; format: biochemical; details: E. coli AVS69009 16S rRNA wt
# Method: as §1, §2
# opp expression = details: ref [17],[18]; cited from earlier work
# glutamine synthetase = details: product of bialaphos hydrolysis; ref [10]; cited from earlier work
# [7] = test system: B. subtilis resistant clones; test: Cross-resistance of resistant clones; format: cell-based; details: of 10 GE81112-resistant clones
# [8] = test system: bacterial peptide transporting systems; details: ref [10]; cited from earlier work
# Text: Indeed, several peptide transport systems exist in E. coli as well in B. subtilis and the peptides actively transported inside the cells can supp ...
# Opp of B. subtilis = details: ref [10]; cited from earlier work
# Opp = details: ref [17]; cited from earlier work
# [9] = test system: E. coli DH5α + pB2 (oppBCDF); test: Growth inhibition halo; format: cell-based; details: 10 μg; minimal medium agar; 24 h at 37 °C
# Method: (§3) The inhibition of bacterial growth by antibiotics was also determined from the diameter of the growth inhibition halo. Bacterial suspensions obtained after overnight growth in minimal medium were diluted and inoculated in 4 mL of Agar–H2O (0.75%) and plated on minimal medium. Ten-microliter spots of the antibiotics were added and the growth inhibition halos measured after 24 h incubation at 37 °C.
# [10] = test system: E. coli DH5α + pBΦ30 (oppA); test: Growth inhibition halo; format: cell-based; details: 10 μg; minimal medium agar; 24 h at 37 °C
# Method: as §3
# [11] = test system: E. coli DH5α + pBΦ30 + pB2; test: Growth inhibition halo; format: cell-based; details: 10 μg; minimal medium agar; 24 h at 37 °C
# Method: as §3
# E. coli DH5α = test: Growth inhibition halo; format: cell-based
# Method: as §3
# E. coli MG1655 = test: Growth inhibition halo; format: cell-based
# Method: as §3
# [12] = test system: E. coli SS320 (wt) + pB2 + pBΦ30; test: Growth inhibition halo; format: cell-based; details: for Halo of Inhibition: minimal medium agar, 24 h at 37 °C
# Method: as §3
# E. coli SS320 (wt) = test: Growth inhibition halo; format: cell-based; details: minimal medium agar, 24 h at 37 °C
# Method: as §3
# [13] = test system: E. coli SS5012 (ΔoppABCDF); test: Growth inhibition halo; format: cell-based; details: for Halo of Inhibition: minimal medium agar, 24 h at 37 °C
# Method: as §3
# [14] = test system: E. coli SS5012 + pB2 (oppBCDF); test: Growth inhibition halo; format: cell-based; details: minimal medium agar, 24 h at 37 °C
# Method: as §3
# [15] = test system: E. coli SS5012 + pB2 + pBΦ30; test: Growth inhibition halo; format: cell-based; details: for Halo of Inhibition: minimal medium agar, 24 h at 37 °C
# Method: as §3
# [16] = test system: E. coli SS5012 + pBΦ30 (oppA); test: Growth inhibition halo; format: cell-based; details: minimal medium agar, 24 h at 37 °C
# Method: as §3
# [17] = test system: E. coli MG1655 resistant mutants; test: Cross-resistance of resistant mutants; format: cell-based; details: of 100 GE81112-resistant colonies; tri-L-ornithine 100 μg/mL
# [18] = test system: mRNA translation in cell-free extracts; details: ref [16]; cited from earlier work
# Text: (§4) Therefore, the most likely explanation for the observed tri-L-ornithine/GE81112 cross-resistance is that the mutations have inactivated the same transport mechanism that allows these two molecules to enter the cell.
# translation in vivo = details: early studies; ref [16]; cited from earlier work
# Text: as §4
# [19] = 10 μg, minimal medium agar, 24 h at 37 °C
molecule,measurement,setting,value
C[C@H]1O[C@H](O[C@H]2[C@H](O)[C@@H](O)[C@@H](O)[C@H](O)[C@@H]2O)[C@@H](N)C[C@@H]1NC(=N)C(=O)O [Kasugamycin],IC50 of mRNA Translation,[1],880 µg/mL
same,IC50 of mRNA Translation,[2],780 µg/mL
same,IC50 of mRNA Translation,[3],384 µg/mL
same,IC50 of mRNA Translation,[4],390 µg/mL
same,IC50 of mRNA Translation,[5],192 µg/mL
same,IC50 of mRNA Translation,[6],750 µg/mL
same,IC50 of mRNA Translation,"ribosome, 16S rRNA wt",12 µg/mL
CC(C)C[C@H](N)C(=O)O [L-leucine],effect on opp expression,opp expression,induces opp expression
CP(=O)(O)CC[C@H](N)C(=O)O [phosphinothricin],inhibition of glutamine synthetase,glutamine synthetase,inhibits glutamine synthetase
bialaphos,GE81112-resistant clones sensitive to bialaphos,[7],none
same,active transport with antibacterial effects,[8],actively transported inside the cell causing antibacterial effects
same,active transport by Opp,Opp of B. subtilis,actively transported by Opp
tri-L-alanine,Opp substrate,Opp,known non-toxic Opp substrate
tri-L-ornithine [Orn3],Halo of Inhibition,[9],10 mm
same,Halo of Inhibition,[10],11 mm
same,Halo of Inhibition,[11],14 mm
same,Halo of Inhibition,E. coli DH5α; [19],0 mm
same,"growth inhibition, in words",E. coli DH5α; E. coli DH5α (Table 4),unaffected
same,Halo of Inhibition,E. coli MG1655; [19],10 mm
same,"growth inhibition, in words",E. coli MG1655; E. coli MG1655 (Table 4),inhibited
same,Halo of Inhibition,[12]; 1 μg,17 mm
same,Halo of Inhibition,[12]; 10 μg,27 mm
same,"sensitivity, in words",[12]; wt transformed with both pBΦ30 and pB2,more sensitive
same,Halo of Inhibition,E. coli SS320 (wt); 1 μg,7 mm
same,Halo of Inhibition,E. coli SS320 (wt); 10 μg,12 mm
same,Halo of Inhibition,[13]; 1 μg,0 mm
same,Halo of Inhibition,[13]; 10 μg,0 mm
same,"growth inhibition on minimal medium agar, in words","[13]; E. coli 5012, opp− mutant",insensitive
same,Halo of Inhibition,[14]; 1 μg,0 mm
same,Halo of Inhibition,[14]; 10 μg,0 mm
same,Halo of Inhibition,[15]; 1 μg,18 mm
same,Halo of Inhibition,[15]; 10 μg,26 mm
same,"sensitivity, in words",[15]; expression in trans of oppA together with oppBCDF,sensitive
same,Halo of Inhibition,[16]; 1 μg,0 mm
same,Halo of Inhibition,[16]; 10 μg,0 mm
same,number of GE81112-resistant mutants cross-resistant to tri-L-ornithine,[17],100
same,inhibition of mRNA translation in vitro,[18],unable to inhibit mRNA translation
same,inhibition of translation in vivo,translation in vivo,inhibits translation in vivo
same,active transport with antibacterial effects,[8],actively transported inside the cell causing antibacterial effects

# From paper PMC4929432, “The Oligopeptide Permease Opp Mediates Illicit Transport of the Bacterial P-site Decoding Inhibitor GE81112” (Antibiotics, 2016)
